These results are taken from PubChem BioAssay (NCI).

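In this assay, cells in 96-well plates receive the compound at five concentrations for 48 hours. Endpoints are linearly interpolated between the surrounding concentrations. At the TGI there is no net growth.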

This experiment has as its system P388 leukemia. Description: NCI tumour cell line growth inhibition, 48 h.

For `Nc1nc(F)nc2c1ncn2C1OC(COP(=O)(O)O)C(O)C1O` (stereo unspecified), the TGI was 150 µM.
